# Read-outs that look alike come from different tables or passages of the source.
# Tests used:
# [1] = tested on: N87 (stomach) cancer cells; experiment: SRB cytotoxicity assay, N87; assay type: cell-based; settings: Homo sapiens, 72 h, maximum tested concentration 50 µM, read-out: IC50 ± SEM, N87
# Method: (§1) MCF7 (breast) or N87 (stomach) cancer cells were grown in Roswell Park Memorial Institute-1640 (RPMI-1640) medium (Thermo Fisher Scientific, Inc; Waltham, MA, USA), supplemented with 10% heat inactivated fetal bovine serum (FBS), 50 units/mL of penicillin and […] of streptomycin and maintained at 37°C in a humidified atmosphere containing 5% CO2. The cells were maintained as “monolayer culture” by serial subculturing.
# (§2) Cytotoxicity was determined using Sulforhodamine B (SRB) method as previously described by Skehan et al. ([66]). Exponentially growing MCF7 and N87 cells were collected using 0.25% Trypsin-EDTA and were then seeded in 96-well plates at a density of 1000-2000 cells/well in 10% FBS and penicillin/streptomycin supplemented RPMI-1640 medium. After 24 h, cells were treated with different concentrations of test compounds and incubated for 72 h at 37°C in a humidified atmosphere containing 5% CO2. Next, the cells were fixed by adding trichloroacetic acid (TCA, 10% final conc. in wells) directly to the wells and incubated for 1 h at 4°C, then cells were washed with distilled water 5 times to remove excess TCA, media, serum proteins, and metabolites, followed by air drying. After that, the fixed cells were stained with 0.4% SRB dissolved in 1% acetic acid for 10 min at room temperature, and excess stain was removed by quickly rinsing with 1% acetic acid. The residual acetic acid was removed completely by air drying the plates for 24 h, and the dye was solubilized with Tris buffer (pH= 7.4, 10 mM) for 5 min on a shaker at 1600 rpm. The optical density (OD) of each well was measured spectrophotometrically at 564 nm with an ELISA microplate reader (ChroMate-4300, FL, USA). The IC50 values (concentration of drug resulting in 50% reduction in cell survival) were calculated according to the equation for Boltzman sigmoidal concentration–response curve using the nonlinear regression fitting models (Graph Pad, Prism Version 5).
# [2] = tested on: MCF7 (breast) cancer cells; experiment: SRB cytotoxicity assay, MCF7; assay type: cell-based, human; settings: maximum tested concentration 50 µM, read-out: IC50 ± SEM, MCF7
# Method: as §1, §2
# [3] = tested on: NB4 leukemia cell line; experiment: CellTiter-Blue cell viability assay, NB4; assay type: cell-based, human; settings: Homo sapiens
# Method: (§3) HL60, K562, MV4-11 and NB4 were purchased from CLS Cell Line Service GmbH (Eppelheim, Germany). All cell lines were cultured in RPMI-1640 medium supplemented with 10% fetal bovine serum (FBS) (Thermo Fisher Scientific) and 0.1% ciprofloxacin (2.5mg/ml; Cipla Limited; Mumbai, India), and were maintained at 37°C in the presence of 21% O2 and 5% CO2.
# (§4) Cell viability was determined using the CellTiter®-Blue Cell Viability Assay kit (Promega, Madison, WI, USA). Approximately 10^4 cells were counted and plated in a 96-well plate in the presence of test compounds ranging from 0.01 to 10 or 20 µM in triplicate and were incubated for 48 h at 37°C in a humidified incubator. After the incubation period was complete, 20 µL of CellTiter®-Blue Cell Viability Assay reagent was added to each well and incubated for additional 2 h for the development of florescence. Florescence was measured at Ex/Em 540/590 on SpectraMax® i3 Multi-Mode microplate reader (Molecular Devices, LLC; San Jose, CA, USA) and plotted against drug concentration to determine the IC50 of the test compounds. The IC50 was obtained by non-linear regression model using GraphPad Prism 6.07 (GraphPad Software, Inc, USA).
# [4] = tested on: K562 leukemia cell line; experiment: CellTiter-Blue cell viability assay, K562; assay type: cell-based; settings: Homo sapiens
# Method: as §3, §4
# [5] = tested on: MV4-11 leukemia cell line; experiment: CellTiter-Blue cell viability assay, MV4-11; assay type: cell-based; settings: Homo sapiens
# Method: as §3, §4
# [6] = tested on: HL60 leukemia cell line; experiment: CellTiter-Blue cell viability assay, HL60; assay type: cell-based; settings: Homo sapiens, HL-60
# Method: as §3, §4
# [7] = tested on: HCT116 cell line; experiment: MTT anti-proliferative assay, HCT116; assay type: cell-based, human; settings: maximum tested concentration 50 µM, read-out: IC50 ± SEM, HCT116
# Method: The test compounds were evaluated for anti-proliferative activity using the MTT viability assay against HCT116 cell line. Cells were seeded in triplicate in 96-well plates at a density of 10x 10^3 cells/mL in a total volume of 200 µL per well. 0.1% of DMSO was used as a vehicle control. Each well was treated with 2 µL test compounds, which had been pre-prepared as stock solutions in […] to furnish the concentration range of study, 0.1 µM to 50 µM, and re-incubated for a further 72 h at 37°C in a humidified atmosphere containing 5% CO2. The culture medium was then removed, and the cells were washed with 100 µL PBS and 100 µL MTT was added, to reach a final concentration of 1 mg/mL MTT. Cells were incubated for 3 h in darkness at 37°C. After that, MTT solution was removed and MTT was solubilized by adding […] DMSO. The cells were maintained at room temperature in darkness for 20 min to ensure thorough color diffusion before reading the absorbance using a microplate reader at 570 nm. All experiments were conducted in triplicates. Results were expressed as percentage viability relative to vehicle control (100%). Dose response curves were plotted and IC50 values (concentration of drug resulting in 50% reduction in cell survival) were obtained using the commercial software package Prism (GraphPad Software, Inc., La Jolla, CA, USA).
# [8] = 48 h, CellTiter-Blue, 48 h, maximum tested concentration 20 µM, read-out: IC50 ± SEM, NB4
# [9] = CellTiter-Blue, 48 h, maximum tested concentration 20 µM, read-out: IC50 ± SEM, K562
# [10] = CellTiter-Blue, 48 h, maximum tested concentration 20 µM, read-out: IC50 ± SEM, MV4-11
# [11] = CellTiter-Blue, 48 h, maximum tested concentration 20 µM, read-out: IC50 ± SEM, HL60
Structure (SMILES),melting point [°C],IC50 [1] [µM],"IC50 ([2]; Homo sapiens, MCF7, 72 h) [µM]","IC50 [3, 8] [µM]","IC50 [4, 9] [µM]","IC50 [5, 10] [µM]","IC50 [6, 11] [µM]","IC50 ([7]; Homo sapiens, HCT-116, 72 h) [µM]",IC50 ([7]; 72 h) [µM],IC50 ([2]; 72 h) [µM],"IC50 ([3]; positive reference for validation, read-out: IC50, NB4) [µM]","IC50 ([4]; positive reference for validation, read-out: IC50, K562) [µM]","IC50 ([5]; positive reference for validation, read-out: IC50, MV411) [µM]","IC50 ([6]; positive reference for validation, read-out: IC50, HL60) [µM]"
"O=C(Cc1ccc(NC(=O)c2ccc(Cl)cc2)cc1)NCc1ccccc1 [Compound 4f, N-(4-(2-(benzylamino)-2-oxoethyl)phenyl)-4-chlorobenzamide]",190,48.3 ± 7.44,> 50,–,–,–,–,–,–,–,–,–,–,–
"O=C(Cc1ccc(NC(=O)c2cncc(Cl)c2)cc1)NCc1ccccc1 [Compound 4o, N-(4-(2-(benzylamino)-2-oxoethyl)phenyl)-5-chloronicotinamide]",231,–,–,5.89 ± 1.11,> 20,> 20,> 20,–,–,–,–,–,–,–
"O=C(Cc1ccc(NC(=O)c2ccc(OCCN3CCOCC3)c(Cl)c2)cc1)NCc1ccccc1 [Compound 4l, N-(4-(2-(benzylamino)-2-oxoethyl)phenyl)-3-chloro-4-(2-morpholinoethoxy) benzamide]",147,–,–,8.77 ± 1.75,12.96 ± 0.08,18.85 ± 0.12,> 20,–,–,–,–,–,–,–
"Cc1ccc(S(=O)(=O)Nc2ccc(CC(=O)NCc3ccccc3)cc2)cc1 [Compound 4g, N-benzyl-2-(4-((4-methylphenyl)sulfonamido)phenyl)acetamide]",140,–,> 50,–,> 20,> 20,> 20,> 50,–,–,–,–,–,–
"O=C(Cc1ccc(NC(=O)c2ccnc(Cl)c2)cc1)NCc1ccccc1 [Compound 4m, N-(4-(2-(benzylamino)-2-oxoethyl)phenyl)-2-chloroisonicotinamide]",–,–,–,3.46 ± 0.06,12.4 ± 1.39,6.33 ± 4.24,> 20,–,–,–,–,–,–,–
"O=C(Cc1ccc(NC(=O)c2cccc(F)c2)cc1)NCc1ccccc1 [Compound 4d, N-(4-(2-(benzylamino)-2-oxoethyl)phenyl)-3-fluorobenzamide]",214,> 50,6.55 ± 1.34,–,2.68 ± 0.03,3.2 ± 0.09,2.96 ± 0.25,19 ± 4.18,–,–,–,–,–,–
"CC(=O)Nc1ccc(CC(=O)NCc2ccccc2)cc1 [Compound 4a, 2-(4-acetamidophenyl)-N-benzylacetamide]",–,> 50,29.3,–,–,–,–,18.8,18.8 ± 3.06,29.3 ± 4.64,–,–,–,–
"O=C(Cc1ccc(NC(=O)c2cccc(Cl)c2)cc1)NCCc1ccccc1 [Compound 4q, 3-Chloro-N-(4-(2-oxo-2-(phenethylamino)ethyl)phenyl)benzamide]",160,–,–,–,> 20,> 20,> 20,–,–,–,–,–,–,–
"O=C(Cc1ccc(NC(=O)c2cccc(Cl)c2)cc1)NCc1ccco1 [Compound 4r, 3-Chloro-N-(4-(2-((furan-2-ylmethyl)amino)-2-oxoethyl)phenyl)benzamide]",206,–,–,–,> 20,> 20,> 20,–,–,–,–,–,–,–
"COc1ccc(C(=O)Nc2ccc(CC(=O)NCc3ccccc3)cc2)cc1Cl [Compound 4j, N-(4-(2-(benzylamino)-2-oxoethyl)phenyl)-3-chloro-4-methoxybenzamide]",186,–,–,5.33 ± 1.43,13.04 ± 0.04,20 ± 0.16,> 20,–,–,–,–,–,–,–
"O=C(Cc1ccc(NC(=O)c2ccccc2)cc1)NCc1ccccc1 [Compound 4c, N-(4-(2-(benzylamino)-2-oxoethyl)phenyl)benzamide]",212,> 50,5.11 ± 3.03,–,> 20,11.9 ± 0.96,5.27 ± 1.94,19.7 ± 4.79,–,–,–,–,–,–
"O=C(Cc1ccc(NC(=O)c2cccc(Cl)c2)cn1)NCc1ccccc1 [Compound 4s, N-(6-(2-(benzylamino)-2-oxoethyl)pyridin-3-yl)-3-chlorobenzamide]",–,–,–,1.74 ± 0.16,4 ± 1.5,2.87 ± 0.3,6.24 ± 3.3,–,–,–,–,–,–,–
"O=C(Cc1ccc(-c2ccc(OCCN3CCOCC3)cc2)cn1)NCc1ccccc1 [KX2-391, Tirbanibulin]",–,–,–,–,–,–,–,–,–,–,0.0033,0.0145,0.00419,0.0121
"Nc1ccc(CC(=O)NCc2ccccc2)cc1 [Compound 3a, 2-(4-aminophenyl)-N-benzylacetamide]",140 to 141,> 50,> 100,–,–,–,–,> 100,> 50,> 50,–,–,–,–
"CCC(=O)Nc1ccc(CC(=O)NCc2ccccc2)cc1 [Compound 4b, N-(4-(2-(benzylamino)-2-oxoethyl)phenyl)propionamide]",210,32 ± 6.34,27.7 ± 9.38,–,> 20,> 20,> 20,> 50,–,–,–,–,–,–
"O=C(Cc1ccc(NC(=O)c2cccc(OCCN3CCOCC3)c2)cc1)NCc1ccccc1 [Compound 4i, N-(4-(2-(benzylamino)-2-oxoethyl)phenyl)-3-(2-morpholinoethoxy)benzamide]",–,–,–,> 20,17.4 ± 2.63,16.3 ± 4.43,> 20,–,–,–,–,–,–,–
"COc1ccc(C(=O)Nc2ccc(CC(=O)NCc3ccccc3)cc2)cc1OC [Compound 4k, N-(4-(2-(benzylamino)-2-oxoethyl)phenyl)-3,4-dimethoxybenzamide]",215,–,–,9.88 ± 2.8,> 20,7.95 ± 0.31,> 20,–,–,–,–,–,–,–
"O=C(Cc1ccc(NC(=O)c2ccc(Cl)o2)cc1)NCc1ccccc1 [Compound 4p, N-(4-(2-(benzylamino)-2-oxoethyl)phenyl)-5-chlorofuran-2-carboxamide]",217,–,–,> 20,> 20,> 20,> 20,–,–,–,–,–,–,–
"COc1cccc(C(=O)Nc2ccc(CC(=O)NCc3ccccc3)cc2)c1 [Compound 4h, N-(4-(2-(benzylamino)-2-oxoethyl)phenyl)-3-methoxybenzamide]",–,–,–,1.96 ± 1.33,4.23 ± 2.44,2.4 ± 0.49,3.27 ± 0.15,–,–,–,–,–,–,–
